Tests used:
Type in all cases: in vivo
[1] = system: 129/Svev/IL-10KO mouse colon; assay: Colonic permeability and electrical resistance, Ussing chamber measurements, IL-10 KO mouse; details: at 8 weeks of age, AT-1001 in drinking water, versus untreated animals
Experimental: (§1) The purpose of this study is to determine the ability of AT-1001, administered daily in drinking water to alter intestinal permeability (measured by absorption/excretion of lactulose and mannitol) and to inhibit the development of colitis in the 129/Svev/IL-10KO mouse.
(§2) FIG. 5-10 show the results of analysis of disease in the colon. Disease in the colon was evaluated at both 8 and 17 week time points. The former with Ussing chamber measurements and the latter with histology, mucosal cytokine secretion, MPO and sucralose permeability.

[2] = system: 129/Svev/IL-10KO mouse colon; assay: Colonic inflammation (histology, mucosal cytokine secretion, MPO) in IL-10 KO mouse; details: at 17 weeks; AT-1001 in drinking water
From the text: as §1
Immediately upon expiration, stomachs, small intestines, and colons will be collected and weighed. Each tissue will be scored for macroscopic lesions to assess intestinal damage by the Study Pathologist. ELISAs will be performed on each tissue to measure the levels of MPO, IL-8, TNFα, and IFNγ. A section of the tissues will be fixed in formalin for HE histology. The day after the final intestinal permeability measures on day 77, all surviving animals will be euthanized and intestinal tissues collected and processed.
as §2

129/Svev/IL-10KO mouse = assay: Small intestinal permeability by lactulose mannitol test in IL-10 KO mouse; details: high dose AT-1001 (1 mg/ml in drinking water, ad libidum), FIGS. 1-4
Experimental: as §1
AT-1001 neat chemical will be administered ad libidum every day starting at day 1 to Group 3 at 0.1 mg/ml and Group 4 at 1 mg/ml in sterile water via the drinking water supply. Dosing of AT-1001 will be continued when the animals are in the metabolic cages for 22 hours. Probiotic conditioned medium will be given every morning to Group 2. The solution is prepared by dissolving 0.01 g in 10 ml of MRS medium and incubating it at 37° C. for 24 h. After incubation, the tube will be centrifuged 10 minutes at 10,000 rpm. The supernatant will be filtered through a 0.22 micron filter and diluted 1:10 with MRS medium. Animals will receive 30 μl of this dilution every morning. The conditioned media must be prepared fresh every morning.
Each week, food and water will be removed 4 hours prior to gavage. […]
During each intestinal permeability trial, all subjects will be gavaged with suc/lac/man/sucralose solution and placed in metabolic cages immediately after to enable urine collection. […] All sugars will be quantified by ion exchange HPLC. […]

AT-1001
colonic electrical resistance [1]: prevented the reduction in electrical resistance
colonic permeability to mannitol [1]: reduced colonic permeability to mannitol
tissue markers of colonic inflammation (neutrophil infiltration/MPO, TNF and IFN secretion over 24 hours) [2]: reduced all tissue markers of colonic inflammation that were measured
increase in small intestinal permeability associated with development of disease (129/Svev/IL-10KO mouse): abrogated

Reference: US8796203B2, “Use of tight junction antagonists to treat inflammatory bowel disease” (Alba Therapeutics Corporation, priority 2006, dated 2014)
